In patent US4056634A, “Dimercaptoethyl ether sulfonium compounds and use as antiinflammatory and antirheumatic agents” (Whitefin Holding S.A., priority 1975, dated 1977):

Legend:
in vivo = details: rat
[1] = tested on: Freund's adjuvant arthritis; experiment: Freund's adjuvant arthritis test in rats (Perper's design); details: 0.04 LD50, N = 10; for Δ Volume (ml) (not injected paw; opposite site), x- ± s.e.: arthritic controls 1.68 ± 0.14; for ΔVolume (ml) (injected paw), x- ± s.e.: arthritic controls 3.21 ± 0.27
Granuloma pouch = experiment: "Granuloma pouch" test (Selye), antiinflammatory activity in the rat; details: 0.06 LD50, N = 10; for Exudate volume (ml), x- ± s.e.: controls 13.2 ± 2.19
[2] = 80 mg/Kg/os daily, n.s. = not significant

SMILES: CC(=O)Oc1ccccc1C(=O)O [Acetylsalicylic acid]
- LD50 (in vivo; ip): 500 mg/kg
- LD50 (in vivo; po): 1500 mg/kg

SMILES: CCCCC1C(=O)N(c2ccccc2)N(c2ccccc2)C1=O [Phenylbutazone]
- Δ Volume (not injected paw; opposite site), % inhib. ([1]; 50 mg/Kg/os daily): 0%
- ΔVolume (injected paw), % inhib. ([1]; 50 mg/Kg/os daily): 8%
- Δ Volume (ml) (not injected paw; opposite site), x- ± s.e. ([1]; 50 mg/Kg/os daily): 1.74 ± 0.13 mL
- ΔVolume (ml) (injected paw), x- ± s.e. ([1]; 50 mg/Kg/os daily): 2.97 ± 0.14 mL
- Pouch wall Fresh weight, % inhib. (Granuloma pouch; 80 mg/Kg/os daily): 27%
- Pouch wall Fresh weight (g), x- ± s.e. (Granuloma pouch; 80 mg/Kg/os daily, controls 5.10 ± 0.53): 3.72 ± 0.28 g
- Exudate volume (ml), x- ± s.e. (Granuloma pouch; 80 mg/Kg/os daily): 9.70 ± 1.65 mL
- Exudate volume, % inhib. (Granuloma pouch; [2]): 28%
- Pouch wall Fresh weight, % inhib. (Granuloma pouch; [2]): 20%

SMILES: C[S+](C)CCOCC[S+](C)C [Z.964, 2,2'-bis(dimethylsulfoniumethyl)ether diiodide]
- Δ Volume (not injected paw; opposite site), % inhib. ([1]; 200 mg/Kg/os daily): 63%
- ΔVolume (injected paw), % inhib. ([1]; 200 mg/Kg/os daily): 32%
- Δ Volume (ml) (not injected paw; opposite site), x- ± s.e. ([1]; 200 mg/Kg/os daily): 0.61 ± 0.13 mL
- ΔVolume (ml) (injected paw), x- ± s.e. ([1]; 200 mg/Kg/os daily): 2.17 ± 0.24 mL
- LD50 (in vivo; ip): 1150 mg/kg
- LD50 (in vivo; po): > 5000 mg/kg
- Pouch wall Fresh weight, % inhib. (Granuloma pouch; 300 mg/Kg/os daily): 48%
- Exudate volume, % inhib. (Granuloma pouch; 300 mg/Kg/os daily, * P<0.05): 53%
- Pouch wall Fresh weight, % inhib. (Granuloma pouch; 300 mg/Kg/os daily, * P<0.05): 38%
- Pouch wall Fresh weight (g), x- ± s.e. (Granuloma pouch; 300 mg/Kg/os daily, controls 5.10 ± 0.53): 2.70 ± 0.27 g
- Exudate volume (ml), x- ± s.e. (Granuloma pouch; 300 mg/Kg/os daily): 6.15 ± 0.69 mL
- Pouch wall Fresh weight (g), x- ± s.e. (Granuloma pouch; 300 mg/Kg/os daily, controls 1126.7, s.e. 156.7): 708.9 ± 79.0
